Test results as given in patent US4220755A, “Fortimicin B derivatives and process for production thereof” (Abbott Laboratories, priority 1976, dated 1980).
In brackets after ≈: the same amount, converted by molar mass. Read-outs that look alike come from different tables or passages of the source.

Key:
[1] = tested on: Proteus vulgaris KY4277 ATCC6897; assay: MIC, agar dilution method, pH 8.0; format: cell-based; settings: ATCC6897; pH 8.0; Proteus vulgaris KY4277; read-out: Minimum inhibition concentration (MIC), PV
Method: (§1) Measurement was carried out according to the agar dilution method, using a medium of pH 8.0, or the Japanese Antibiotic Medicament Standard, using a medium of pH 7.2 Units are in mcg/ml.

[2] = tested on: Shigella sonnei KY4281 ATCC9290; assay: MIC, agar dilution method, pH 8.0; format: cell-based
Method: as §1

[3] = tested on: Salmonella typhosa KY4278 ATCC9992; assay: MIC, agar dilution method, pH 8.0; format: cell-based; settings: Salmonella enterica, pH 8, read-out: Minimum inhibition concentration (MIC), ST
Method: as §1
S.T.: Salmonella typhosa KY4278 ATCC9992

[4] = tested on: Pseudomonas aeruginosa R4 KY8511; assay: MIC, agar dilution method, pH 7.2; format: cell-based; settings: R4KY8511, pH 7.2, P. aeruginosa R4 KY8511, 4**: gentamicin, producing acetyltransferase type I, read-out: Minimum inhibition concentration (MIC)
Method: as §1
(§2) 4: gentamicin, producing acetyltransferase type I.

[5] = tested on: Escherichia coli R19 KY8348; assay: MIC, agar dilution method, pH 7.2; format: cell-based; settings: R19KY8348, pH 7.2, E. coli R19 KY8348, 4**: gentamicin, producing acetyltransferase type I, read-out: Minimum inhibition concentration (MIC)
Method: as §1, §2

Eschericihia coli 3100 = assay: MIC, agar dilution method, pH 7.2; format: cell-based, Escherichia coli
Method: as §1

[6] = tested on: Escherichia coli R18 KY8321; assay: MIC, agar dilution method, pH 7.2; format: cell-based; settings: R18KY8321, E. coli R18 KY8321, 2**: gentamicin, producing adenylsynthetase and neomycin phosphotransferase type II, read-out: Minimum inhibition concentration (MIC)
Method: as §1
2: gentamicin, producing adenylsynthetase and neomycin phosphotransferase

[7] = tested on: Escherichia coli R20 KY8349; assay: MIC, agar dilution method, pH 7.2; format: cell-based; settings: R20KY8349, pH 7.2, E. coli R20 KY8349, 5**: neomycin, producing phosphotransferase type I, read-out: Minimum inhibition concentration (MIC)
Method: as §1
5: neomycin, producing phosphotransferase type I.

[8] = tested on: Klebsiella pneumoniae KY4275 ATCC10031; assay: MIC, agar dilution method, pH 8.0; format: cell-based; settings: ATCC10031; pH 8.0; Klebsiella pneumoniae KY4275; read-out: Minimum inhibition concentration (MIC), KP
Method: as §1
K.P.: Klebsiella pneumoniae KY4275 ATCC10031.

[9] = tested on: Pseudomonas aeruginosa R5 KY8512; assay: MIC, agar dilution method, pH 7.2; format: cell-based; settings: R5KY8512, pH 7.2, P. aeruginosa R5 KY8512, 6**: neomycin, producing phosphotransferase type I and type II, read-out: Minimum inhibition concentration (MIC)
Method: as §1
6: neomycin, producing phosphotransferase type I and type II.

[10] = tested on: Staphylococcus a ureus 226; assay: MIC, agar dilution method, pH 7.2; format: cell-based, Staphylococcus aureus; settings: pH 7.2; Staphylococcus aureus 226; read-out: Minimum inhibition concentration (MIC)
Method: as §1

various microorganisms = assay: Antibacterial activity (general statements); format: cell-based; settings: qualitative statement
Method: as §1

Bacillus subtilis KY4273 = assay: MIC, agar dilution method, pH 8.0; format: cell-based
Method: as §1
B.S.: Bacillus subtilis KY4273

[11] = tested on: Escherichia coli R12 Z-338; assay: MIC, agar dilution method, pH 7.2; format: cell-based
Method: as §1
(§3) **1: gentamicin, producing adenylsynthetase.

Escherichia coli 76-2 = assay: MIC, agar dilution method, pH 7.2; format: cell-based; settings: Escherichia coli, 762; pH 7.2; E. coli 76-2; 1**: gentamicin, producing adenylsynthetase; read-out: Minimum inhibition concentration (MIC)
Method: as §1, §3

[12] = tested on: Klebsiella pneumoniae 3020 Y-60; assay: MIC, agar dilution method, pH 7.2; format: cell-based; settings: 3020Y60; pH 7.2; Klebsiella pneumoniae 3020 Y-60; 1**: gentamicin, producing adenylsynthetase; read-out: Minimum inhibition concentration (MIC)
Method: as §1, §3

[13] = tested on: Escherichia coli 57R/W677; assay: MIC, agar dilution method, pH 7.2; format: cell-based; settings: 57R/W677, pH 7.2, read-out: Minimum inhibition concentration (MIC)
Method: as §1, §3

Providencia sp 164 = assay: MIC, agar dilution method, pH 7.2; format: cell-based; settings: pH 7.2; Providencia sp 164; 7**: gentamicin, producing acetyltransferase type II; read-out: Minimum inhibition concentration (MIC)
Method: as §1
7: gentamicin, producing acetyltransferase type II.

Serratia marcescens 1065 = assay: MIC, agar dilution method, pH 7.2; format: cell-based
Method: as §1
(§4) 3: kanamycin, producing acetyltransferase.

[14] = tested on: Escherichia coli R17 Z343; assay: MIC, agar dilution method, pH 7.2; format: cell-based; settings: R17Z343, pH 7.2, E. coli R17 Z343, 3**: kanamycin, producing acetyltransferase, read-out: Minimum inhibition concentration (MIC)
Method: as §1, §4

[15] = tested on: Pseudomonas aeruginosa R9 KY8516; assay: MIC, agar dilution method, pH 7.2; format: cell-based; settings: R9KY8516, pH 7.2, P. aeruginosa R9 KY8516, 3**: kanamycin, producing acetyltransferase, read-out: Minimum inhibition concentration (MIC)
Method: as §1, §4

Proteus vulgaris JJ = assay: MIC, agar dilution method, pH 7.2; format: cell-based
Method: as §1

[16] = tested on: Eschericihia coli GN2411-5; assay: MIC, agar dilution method, pH 7.2; format: cell-based; settings: Escherichia coli; pH 7.2; E. coli GN2411-5; read-out: Minimum inhibition concentration (MIC)
Method: as §1

[17] = tested on: Staphylococcus aureus 209-P; assay: MIC, agar dilution method, pH 7.2; format: cell-based; settings: pH 7.2; Staphylococcus aureus 209-P; read-out: Minimum inhibition concentration (MIC)
Method: as §1

[18] = tested on: Staphylococcus aureus Smith (A); assay: MIC, agar dilution method, pH 7.2; format: cell-based; settings: pH 7.2; Staphylococcus aureus Smith (A); read-out: Minimum inhibition concentration (MIC)
Method: as §1

[19] = tested on: Klebsiella pneumoniae KY4274; assay: MIC, agar dilution method, pH 7.2; format: cell-based
Method: as §1

Shigella sonnei ATCC9290 = assay: MIC, agar dilution method, pH 7.2; format: cell-based; settings: read-out: Minimum inhibition concentration (MIC)
Method: as §1

[20] = tested on: Pseudomonas aeruginosa BMH# 1; assay: MIC, agar dilution method, pH 7.2; format: cell-based; settings: pH 7.2; Pseudomonas aeruginosa BMH# 1; read-out: Minimum inhibition concentration (MIC)
Method: as §1

[21] = tested on: Salmonella enteritidis G-14; assay: MIC, agar dilution method, pH 7.2; format: cell-based; settings: Salmonella enterica; pH 7.2; Salmonella enteritidis G-14; read-out: Minimum inhibition concentration (MIC)
Method: as §1

Escherichia coli NIHTC-2 = assay: MIC, agar dilution method, pH 7.2; format: cell-based; settings: NIHTC2; pH 7.2; Escherichia coli NIHTC-2; read-out: Minimum inhibition concentration (MIC)
Method: as §1

[22] = tested on: Pseudomonas aeruginosa UCLA 4184; assay: MIC, agar dilution method, pH 7.2; format: cell-based; settings: UCLA4184; pH 7.2; Pseudomonas aeruginosa UCLA 4184; read-out: Minimum inhibition concentration (MIC)
Method: as §1

[23] = tested on: Staphylococcus aureus KY4279 ATCC6538P; assay: MIC, agar dilution method, pH 8.0; format: cell-based
Method: as §1
S.A.: Staphylococcus aureus KY4279 ATCC6538P

[24] = tested on: Eschericia coli KY4271 ATCC26; assay: MIC, agar dilution method, pH 8.0; format: cell-based; settings: Escherichia coli, ATCC26; pH 8.0; E. coli KY4271; read-out: Minimum inhibition concentration (MIC), EC
Method: as §1
E.C.: Eschericia coli KY4271 ATCC26

CN[C@H]1[C@@H](O)[C@H](O[C@H]2O[C@H]([C@H](C)N)CC[C@H]2N)[C@@H](N)[C@H](O)[C@@H]1OC [Compound 1, fortimicin B]
MIC [1]: 25 µg/mL (≈ 71.7 µM)
MIC ([2]; ATCC9290, pH 8.0, Shigella sonnei KY4281, read-out: Minimum inhibition concentration (MIC), SS): 50 µg/mL (≈ 143 µM)
MIC [3]: 12.5 µg/mL (≈ 35.9 µM)
MIC [4]: > 100 µg/mL
MIC [5]: > 100 µg/mL
MIC (Eschericihia coli 3100; Escherichia coli, pH 7.2, E. coli 3100, read-out: Minimum inhibition concentration (MIC)): 100 µg/mL (≈ 287 µM)
MIC [6]: > 100 µg/mL
MIC [7]: > 100 µg/mL
MIC [8]: 50 µg/mL (≈ 143 µM)
MIC [9]: > 100 µg/mL
MIC [10]: 100 µg/mL (≈ 287 µM)
Antibacterial activity (various microorganisms): not as good as the other factors
MIC (Bacillus subtilis KY4273; Bacillus subtilis, KY4273, pH 8, read-out: Minimum inhibition concentration (MIC), BS): 12.5 µg/mL (≈ 35.9 µM)
MIC ([11]; R12Z338, pH 7.2, E. coli R12 Z-338, 1**: gentamicin, producing adenylsynthetase, read-out: Minimum inhibition concentration (MIC)): > 100 µg/mL
MIC (Escherichia coli 76-2): > 100 µg/mL
MIC [12]: > 100 µg/mL
MIC [13]: > 100 µg/mL
MIC (Providencia sp 164): > 100 µg/mL
MIC (Serratia marcescens 1065; pH 7.2, Serratia marcescens 1065, 3**: kanamycin, producing acetyltransferase, read-out: Minimum inhibition concentration (MIC)): > 100 µg/mL
MIC [14]: > 100 µg/mL
MIC [15]: > 100 µg/mL
MIC (Proteus vulgaris JJ; pH 7.2, Proteus vulgaris JJ, read-out: Minimum inhibition concentration (MIC)): > 100 µg/mL
MIC [16]: > 100 µg/mL
MIC [17]: > 100 µg/mL
MIC [18]: 100 µg/mL (≈ 287 µM)
MIC ([19]; pH 7.2, Klebsiella pneumoniae KY4274, read-out: Minimum inhibition concentration (MIC)): 100 µg/mL (≈ 287 µM)
MIC (Shigella sonnei ATCC9290): > 100 µg/mL
MIC [20]: > 100 µg/mL
MIC [21]: 100 µg/mL (≈ 287 µM)
MIC (Escherichia coli NIHTC-2): > 100 µg/mL
MIC [22]: > 100 µg/mL
MIC ([23]; Staphylococcus aureus, pH 8, read-out: Minimum inhibition concentration (MIC), SA): 12.5 µg/mL (≈ 35.9 µM)
MIC [24]: 25 µg/mL (≈ 71.7 µM)

CO[C@H]1[C@@H](O)[C@H](N)[C@@H](O[C@H]2O[C@H]([C@H](C)N)CC[C@H]2N)[C@H](O)[C@@H]1N(C)CCN [Compound 15, 4-N-(2-aminoethyl)fortimicin B]
MIC [1]: 0.64 µg/mL (≈ 1.63 µM)
MIC ([2]; Shigella sonnei, ATCC9290, pH 8, read-out: Minimum inhibition concentration (MIC), SS): 1.25 µg/mL (≈ 3.19 µM)
MIC [3]: 0.32 µg/mL (≈ 0.817 µM)
MIC [4]: > 100 µg/mL
MIC [5]: > 100 µg/mL
MIC (Eschericihia coli 3100; Escherichia coli, 3100, pH 7.2, read-out: Minimum inhibition concentration (MIC)): 6.25 µg/mL (≈ 16 µM)
MIC [6]: 3.12 µg/mL (≈ 7.97 µM)
MIC [7]: 3.12 µg/mL (≈ 7.97 µM)
MIC [8]: 0.63 µg/mL (≈ 1.61 µM)
MIC [9]: 12.5 µg/mL (≈ 31.9 µM)
MIC [10]: 0.4 µg/mL (≈ 1.02 µM)
MIC (Bacillus subtilis KY4273; pH 8.0, Bacillus subtilis KY4273, read-out: Minimum inhibition concentration (MIC), BS): 0.16 µg/mL (≈ 0.409 µM)
MIC ([11]; R12Z338, pH 7.2, read-out: Minimum inhibition concentration (MIC)): 6.25 µg/mL (≈ 16 µM)
MIC (Escherichia coli 76-2): 3.12 µg/mL (≈ 7.97 µM)
MIC [12]: 50 µg/mL (≈ 128 µM)
MIC [13]: 12.5 µg/mL (≈ 31.9 µM)
MIC (Providencia sp 164): 12.5 µg/mL (≈ 31.9 µM)
MIC (Serratia marcescens 1065; Serratia marcescens, 1065, pH 7.2, read-out: Minimum inhibition concentration (MIC)): 6.25 µg/mL (≈ 16 µM)
MIC [14]: 0.78 µg/mL (≈ 1.99 µM)
MIC [15]: 25 µg/mL (≈ 63.9 µM)
MIC (Proteus vulgaris JJ; Proteus vulgaris, pH 7.2, read-out: Minimum inhibition concentration (MIC)): 6.25 µg/mL (≈ 16 µM)
MIC [16]: 3.12 µg/mL (≈ 7.97 µM)
MIC [17]: 0.78 µg/mL (≈ 1.99 µM)
MIC [18]: 0.78 µg/mL (≈ 1.99 µM)
MIC ([19]; Klebsiella pneumoniae, KY4274, pH 7.2, read-out: Minimum inhibition concentration (MIC)): 6.25 µg/mL (≈ 16 µM)
MIC (Shigella sonnei ATCC9290): 6.25 µg/mL (≈ 16 µM)
MIC [20]: 12.5 µg/mL (≈ 31.9 µM)
MIC [21]: 25 µg/mL (≈ 63.9 µM)
MIC (Escherichia coli NIHTC-2): 3.12 µg/mL (≈ 7.97 µM)
MIC [22]: 12.5 µg/mL (≈ 31.9 µM)
MIC ([23]; pH 8.0, Staphylococcus aureus KY4279, read-out: Minimum inhibition concentration (MIC), SA): 0.16 µg/mL (≈ 0.409 µM)
MIC [24]: 0.32 µg/mL (≈ 0.817 µM)
